# Earlier results as cited in US20080171790A1, “Fatty acids-systemic lipid solubilizers conjugates” (priority 2007, published 2008).
# Settings: after oral administration
smiles,measurement,value
"C[C@H](CCC(=O)O)[C@H]1CC[C@H]2[C@@H]3C[C@H](O)[C@@H]4C[C@H](O)CC[C@]4(C)[C@H]3CC[C@]12C [hyodeoxycholic acid, Hyodeoxycholic acid]",proportion of the administered substance excreted in the urine as a glucuronide,up to 84%
